Data on 5 compounds can be found in US10010614B2, “Derivatives of GLP-1 like peptides, and uses thereof” (Novo Nordisk A/S, priority 2013, dated 2018).

Numbered stars: 1 amine (or outer) side, 2 acyl side, 3 side chain; on linkers, the order of the positions; unused ones are H or OH. Square brackets hold non-standard residues; d marks the D form. Side chains are listed from the residue outwards. Peptide text beside a SMILES is read from it. * marks the point of attachment. X1 = O=C(O)CCCCCCCCCCCCCCCCCCC(=O)NCC1CCC(C(=O)*)CC1; C20 diacid = O=C(O)CCCCCCCCCCCCCCCCCCC(=O)*; γGlu = O=C(O)[C@H](CCC(=O)[*:2])N[*:1]; εLys = N[C@@H](CCCCN[*:1])C(=O)[*:2]; Trx = NC[C@H]1CC[C@H](C(=O)O)CC1; AEEA = NCCOCCOCC(=O)O; Aib = CC(C)(N)C(=O)O Where only a bound is given, the exact number is not on record here.

Series [1] addresses T1, human GLP-1 receptor (Homo sapiens, UniProt P43220).
T1 construct: expressed in transfected cells; host or cells: membranes prepared from BHK cells (parent line BHKTS13), clone FCW467-12A
Briefly: GLP-1 receptor binding, competitive binding assay (125I-GLP-1, SPA) on isolated membranes.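 Further: test compounds added at a range of concentrations to membranes from cells expressing the human GLP-1 receptor, scored by displacement of labelled ligand, read with WGA SPA beads.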
Protocol: The purpose of this example is to test the receptor binding of the GLP-1 derivatives in vitro. The receptor binding is a measure of affinity of a derivative for the human GLP-1 receptor.
In this type of assay a labelled ligand (in this case ^125I-GLP-1) is bound to the receptor. Each derivative is added in a series of concentrations to isolated membranes containing the human GLP-1 receptor and displacement of the labelled ligand is monitored. The receptor binding is reported as the concentration at which half of the labelled ligand is displaced from the receptor, the IC50 value.
The following chemicals were used in the assay: Human serum albumin (HSA) (Sigma A1653), DMEM w/o phenol red (Gibco 11880-028), Pen/strep (Invitrogen 15140-122), G418 (Invitrogen 10131-027), 1 M Hepes (Gibco 15630), EDTA (Invitrogen 15575-038), PBS (Invitrogen 14190-094), fetal calf serum (Invitrogen 16140-071), EGTA, MgCl2 (Merck 1.05832.1000), Tween 20 (Amresco 0850C335), SPA particles (wheat germ agglutinin (WGA) SPA beads, Perkin Elmer RPNQ0001), [^125I]-GLP-1]-(7-36)NH2 (produced in-house), OptiPlate™-96 (Packard 6005290).
Buffer 1 consisted of 20 mM Na-HEPES plus 10 mM EDTA and pH was adjusted to 7.4. Buffer 2 consisted of 20 mM Na-HEPES plus 0.1 mM EDTA and pH was adjusted to 7.4. Assay buffer consisted of 50 mM HEPES supplemented with 5 mM EGTA, 5 mM MgCl2, 0.005% Tween 20 and pH was adjusted to 7.4. An 8% albumin stock consisted of HSA dissolved at 8% (w/v) in assay buffer. An 0.02% albumin stock consisted of HSA dissolved at 0.02% (w/v) in assay buffer.
The cells express the human GLP-1 receptor.
The cells were grown at 5% CO2 in DMEM, 10% fetal calf serum, 1% Pen/Strep (Penicillin/Streptomycin) and 1.0 mg/ml of the selection marker G418.
To make a membrane preparation the cells were grown to approximately 80% confluence. The cells were washed twice in phosphate-buffered saline and harvested. The cells were pelleted using a brief centrifugation and the cell pellet was kept on ice. The cell pellet was homogenised with ULTRA-THURRAX™ dispersing instrument for 20-30 seconds in a suitable amount of buffer 1 (e.g., 10 ml). The homogenate was centrifuged for 15 minutes. The pellet was re-suspended (homogenised) in 10 ml buffer 2 and centrifuged. This step was repeated once more. The resulting pellet was re-suspended in buffer 2 and the protein concentration was determined. The membranes were aliquoted and stored at minus 80° C.
For the receptor binding assay in the presence of low HSA (0.005%) 50 μl of the assay buffer was added to each well of an assay plate.
For the receptor binding assay in the presence of high HSA (2%) 50 μl of the 8% albumin stock was added to each well of an assay plate.
Cell membrane aliquots were thawed and diluted to their working concentration. Fifty μl were added to each well in the assay plate.
WGA SPA beads were suspended in assay buffer at 20 mg/ml. The suspension was diluted to 10 mg/ml in assay buffer just prior to addition to the assay plate. Fifty μl were added to each well in the assay plate.
The incubation was started by adding 25 μl of 480 pM solution of [^125I]-GLP-1]-(7-36)NH2 to each well of the assay plate. A 25 μl aliquot was reserved for measuring total counts/well.
The assay plate was incubated for 2 h at 30° C.
The assay plate was centrifuged for 10 min.
The assay plate was read in a Packard TopCount NXT instrument.
The data from the TopCount instrument were transferred to GraphPad Prism software. The software averaged the values for the replicates and performed a non-linear regression. IC50 values were calculated by the software and reported in nM.

Series [2] in a line: Pharmacokinetic study in minipigs (i.v.). It is filed as in vivo. Conditions: male, Göttingen, minipig, plasma, iv; read-out: Terminal half-live (converted). On the procedure: The purpose of this study is to determine the protraction in vivo of the GLP-1 derivatives after i.v. administration to minipigs, i.e. the prolongation of their time in the body and thereby their time of action. This is done in a pharmacokinetic (PK) study, where the terminal half-life of the derivative in question is determined. By terminal half-life is meant the time it takes to halve a certain plasma concentration in the terminal elimination phase.
The derivatives of Examples 1-5 were dosed with 2 nmol/kg, the derivative of Example 6 was dosed with 5 nmol/kg, and the derivatives of Examples 7-9 were dosed with 15 nmol/kg.
Male Göttingen minipigs were obtained from Ellegaard Göttingen Minipigs (Dalmose, Denmark) approximately 7-14 months of age and weighing approximately 16-35 kg were used in the studies. The minipigs were housed either individually (pigs with permanent catheters) or in a group and fed restrictedly once or twice daily with SDS minipig diet (Special Diets Services, Essex, UK).
After at least 2 weeks of acclimatisation two permanent central venous catheters were implanted in vena cava caudalis or cranialis in each animal. The animals were allowed 1 week recovery after the surgery, and were then used for repeated pharmacokinetic studies with a suitable wash-out period between successive GLP-1 derivative dosings.
The GLP-1 derivatives were dissolved in 50 mM sodium phosphate, 70-145 mM sodium chloride, 0.05% tween 80, pH 7.4 to a concentration of usually from 20-60 nmol/ml.
Intravenous injections (the volume corresponding to for example 0.050-0.125 ml/kg) of the compounds were given through one catheter or through the venflon, and blood was sampled at predefined time points for up till 25 days post dosing (preferably through the other catheter or by venipuncture). Blood samples (for example 0.8 ml) were collected in EDTA buffer (8 mM) and then centrifuged at 4° C. and 1942G for 10 minutes.
Plasma was pipetted into Micronic tubes on dry ice, and kept at −20° C. until analysed for plasma concentration of the respective GLP-1 compound using LOCI. Individual plasma concentration-time profiles were analyzed by a non-compartmental pharmacokinetic method in Phoenix v. 6.2 (Pharsight Inc., Mountain View, Calif., USA), or other relevant software for PK analysis, and the resulting terminal half-lives (harmonic mean) determined.

In series [3] the target is T1, human GLP-1 receptor. Description: In vitro potency, CRE luciferase reporter gene assay in BHK cells expressing the human GLP-1 receptor. The settings on record: whole cell reporter gene assay, 3 h incubation, no HSA, averages of at least two replicates. It counts as cell-based. In short, it runs like this:
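Stably transfected BHK cells (5×10^3/well) expressing human GLP-1R with a CRE-luciferase reporter; compounds diluted in buffer with 2% ovalbumin and 0.2% Pluronic F-68, final 1×10^−7 to 1×10^−14 M. Incubated 3 h at 37 °C, 5% CO2, then luminescence read; potency from non-linear log(agonist)–response fit, mean of ≥2 replicates.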
In general terms: In a reporter assay the amount or activity of a reporter protein is the signal.

T1 sequence (P43220 24-463): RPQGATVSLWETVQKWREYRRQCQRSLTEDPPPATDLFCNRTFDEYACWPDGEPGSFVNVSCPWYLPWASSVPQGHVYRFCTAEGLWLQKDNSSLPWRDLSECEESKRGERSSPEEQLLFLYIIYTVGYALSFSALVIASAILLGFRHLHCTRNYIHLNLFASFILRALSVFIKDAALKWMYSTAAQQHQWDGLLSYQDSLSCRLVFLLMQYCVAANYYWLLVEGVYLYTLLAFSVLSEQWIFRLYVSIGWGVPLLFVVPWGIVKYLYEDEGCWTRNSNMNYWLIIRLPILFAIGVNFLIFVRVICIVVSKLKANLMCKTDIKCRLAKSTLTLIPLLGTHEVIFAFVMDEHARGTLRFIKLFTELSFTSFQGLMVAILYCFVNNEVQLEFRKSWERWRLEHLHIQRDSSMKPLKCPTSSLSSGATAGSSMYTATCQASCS

Turning to `CC[C@H](C)[C@H](NC(=O)[C@H](Cc1ccccc1)NC(=O)[C@H](CCC(=O)O)NC(=O)[C@H](CCCNC(=N)N)NC(=O)[C@H](C)NC(=O)[C@H](C)NC(=O)[C@H](CCC(N)=O)NC(=O)[C@H](CCC(=O)O)NC(=O)[C@H](CCC(=O)O)NC(=O)[C@H](CC(C)C)NC(=O)[C@H](Cc1ccc(O)cc1)NC(=O)[C@H](CCCCNC(=O)COCCOCCNC(=O)COCCOCCNC(=O)CC[C@H](NC(=O)[C@H]1CC[C@H](CNC(=O)CCCCCCCCCCCCCCCCCCC(=O)O)CC1)C(=O)O)NC(=O)[C@H](CO)NC(=O)[C@@H](NC(=O)[C@H](CC(=O)O)NC(=O)[C@H](CO)NC(=O)[C@@H](NC(=O)[C@H](Cc1ccccc1)NC(=O)[C@@H](NC(=O)CNC(=O)[C@H](CCC(=O)O)NC(=O)C(C)(C)NC(=O)[C@@H](N)Cc1c[nH]cn1)[C@@H](C)O)[C@@H](C)O)C(C)C)C(=O)N[C@@H](C)C(=O)N[C@@H](Cc1c[nH]c2ccccc12)C(=O)N[C@@H](CC(C)C)C(=O)N[C@H](C(=O)N[C@@H](CCCNC(=N)N)C(=O)NCC(=O)N[C@@H](CCCNC(=N)N)C(=O)NCC(=O)NCC(=O)NCC(=O)NCC(=O)N[C@@H](CO)C(=O)N[C@@H](CCCCNC(=O)COCCOCCNC(=O)COCCOCCNC(=O)CC[C@H](NC(=O)[C@H]1CC[C@H](CNC(=O)CCCCCCCCCCCCCCCCCCC(=O)O)CC1)C(=O)O)C(=O)O)C(C)C` [Example 6] (H-H[Aib]EGTFTSDVSK([AEEA-AEEA-γGlu-Trx-C20 diacid])YLEEQAAREFIAWLVRGRGGGGSK([AEEA-AEEA-γGlu-Trx-C20 diacid])-OH), the IC50 is at least 1000 nM at human GLP-1 receptor [1] (High HSA IC50 (nM), high serum albumin (2.0% HSA final assay concentration)) and 1 nM at human GLP-1 receptor [1] (Low HSA IC50 (nM), low serum albumin (max. 0.001% final assay concentration)). The half-life in series [2] is 99 h. At human GLP-1 receptor [3], this compound showed an EC50 of 0.093 nM.
Regarding `CC[C@H](C)[C@H](NC(=O)[C@H](Cc1ccccc1)NC(=O)[C@H](CCC(=O)O)NC(=O)[C@H](CCCNC(=N)N)NC(=O)[C@H](C)NC(=O)[C@H](C)NC(=O)[C@H](CCCCNC(=O)COCCOCCNC(=O)COCCOCCNC(=O)CC[C@H](NC(=O)C1CCC(CNC(=O)CCCCCCCCCCCCCCCCCCC(=O)O)CC1)C(=O)O)NC(=O)[C@H](CCC(=O)O)NC(=O)[C@H](CCC(=O)O)NC(=O)[C@H](CC(C)C)NC(=O)[C@H](Cc1ccc(O)cc1)NC(=O)[C@H](CO)NC(=O)[C@H](CO)NC(=O)[C@@H](NC(=O)[C@H](CC(=O)O)NC(=O)[C@H](CO)NC(=O)[C@@H](NC(=O)[C@H](Cc1ccccc1)NC(=O)[C@@H](NC(=O)CNC(=O)[C@H](CCC(=O)O)NC(=O)C(C)(C)NC(=O)[C@@H](N)Cc1c[nH]cn1)[C@@H](C)O)[C@@H](C)O)C(C)C)C(=O)N[C@@H](C)C(=O)N[C@@H](Cc1c[nH]c2ccccc12)C(=O)N[C@@H](CC(C)C)C(=O)N[C@H](C(=O)N[C@@H](CCCNC(=N)N)C(=O)NCC(=O)N[C@@H](CCCNC(=N)N)C(=O)NCC(=O)NCC(=O)NCC(=O)NCC(=O)N[C@@H](CO)C(=O)N[C@@H](CCCCNC(=O)COCCOCCNC(=O)COCCOCCNC(=O)CC[C@H](NC(=O)C1CCC(CNC(=O)CCCCCCCCCCCCCCCCCCC(=O)O)CC1)C(=O)O)C(=O)O)C(C)C` (some centres unmarked) [Example 4] (H-H[Aib]EGTFTSDVSSYLEEK([AEEA-AEEA-γGlu-X1])AAREFIAWLVRGRGGGGSK([AEEA-AEEA-γGlu-X1])-OH; N-terminus and C-terminus assumed), the half-life in series [2] was 137 h.
For `CC[C@H](C)[C@H](NC(=O)[C@H](Cc1ccccc1)NC(=O)[C@H](CCC(=O)O)NC(=O)[C@H](CCCNC(=N)N)NC(=O)[C@H](C)NC(=O)[C@H](C)NC(=O)[C@H](CCC(N)=O)NC(=O)[C@H](CCC(=O)O)NC(=O)[C@H](CCC(=O)O)NC(=O)[C@H](CC(C)C)NC(=O)[C@H](Cc1ccc(O)cc1)NC(=O)[C@H](CO)NC(=O)[C@H](CO)NC(=O)[C@@H](NC(=O)[C@H](CC(=O)O)NC(=O)[C@H](CO)NC(=O)[C@@H](NC(=O)[C@H](Cc1ccccc1)NC(=O)[C@@H](NC(=O)CNC(=O)[C@H](CCC(=O)O)NC(=O)C(C)(C)NC(=O)[C@@H](N)Cc1c[nH]cn1)[C@@H](C)O)[C@@H](C)O)C(C)C)C(=O)N[C@@H](C)C(=O)N[C@@H](Cc1c[nH]c2ccccc12)C(=O)N[C@@H](CC(C)C)C(=O)N[C@H](C(=O)N[C@@H](CCCNC(=N)N)C(=O)NCC(=O)N[C@@H](CCCCNC(=O)COCCOCCNC(=O)COCCOCCNC(=O)CC[C@H](NC(=O)C1CCC(CNC(=O)CCCCCCCCCCCCCCCCCCC(=O)O)CC1)C(=O)O)C(=O)NCC(=O)NCC(=O)NCC(=O)NCC(=O)N[C@@H](CO)C(=O)N[C@@H](CCCCNC(=O)COCCOCCNC(=O)COCCOCCNC(=O)CC[C@H](NC(=O)C1CCC(CNC(=O)CCCCCCCCCCCCCCCCCCC(=O)O)CC1)C(=O)O)C(=O)O)C(C)C` (some centres unmarked) [Example 5] (H-H[Aib]EGTFTSDVSSYLEEQAAREFIAWLVRGK([AEEA-AEEA-γGlu-X1])GGGGSK([AEEA-AEEA-γGlu-X1])-OH; N-terminus and C-terminus assumed), the half-life in series [2] is 131 h.
`CC[C@H](C)[C@H](NC(=O)[C@H](Cc1ccccc1)NC(=O)[C@H](CCCCNC(=O)COCCOCCNC(=O)COCCOCCNC(=O)CC[C@H](NC(=O)C1CCC(CNC(=O)CCCCCCCCCCCCCCCCCCC(=O)O)CC1)C(=O)O)NC(=O)[C@H](CCCNC(=N)N)NC(=O)[C@H](C)NC(=O)[C@H](C)NC(=O)[C@H](CCC(N)=O)NC(=O)[C@H](CCC(=O)O)NC(=O)[C@H](CCC(=O)O)NC(=O)[C@H](CC(C)C)NC(=O)[C@H](Cc1ccc(O)cc1)NC(=O)[C@H](CO)NC(=O)[C@H](CO)NC(=O)[C@@H](NC(=O)[C@H](CC(=O)O)NC(=O)[C@H](CO)NC(=O)[C@@H](NC(=O)[C@H](Cc1ccccc1)NC(=O)[C@@H](NC(=O)CNC(=O)[C@H](CCC(=O)O)NC(=O)C(C)(C)NC(=O)[C@@H](N)Cc1c[nH]cn1)[C@@H](C)O)[C@@H](C)O)C(C)C)C(=O)N[C@@H](C)C(=O)N[C@@H](Cc1c[nH]c2ccccc12)C(=O)N[C@@H](CC(C)C)C(=O)N[C@H](C(=O)N[C@@H](CCCNC(=N)N)C(=O)NCC(=O)N[C@@H](CCCNC(=N)N)C(=O)NCC(=O)NCC(=O)NCC(=O)NCC(=O)N[C@@H](CO)C(=O)N[C@@H](CCCCNC(=O)COCCOCCNC(=O)COCCOCCNC(=O)CC[C@H](NC(=O)C1CCC(CNC(=O)CCCCCCCCCCCCCCCCCCC(=O)O)CC1)C(=O)O)C(=O)O)C(C)C` (some centres unmarked) [Example 1] (H-H[Aib]EGTFTSDVSSYLEEQAARK([AEEA-AEEA-γGlu-X1])FIAWLVRGRGGGGSK([AEEA-AEEA-γGlu-X1])-OH; N-terminus and C-terminus assumed): the half-life in series [2] was 121 h.
With `CC[C@H](C)[C@H](NC(=O)[C@H](Cc1ccccc1)NC(=O)[C@H](CCC(=O)O)NC(=O)[C@H](CCCNC(=N)N)NC(=O)[C@H](C)NC(=O)[C@H](C)NC(=O)[C@H](CCC(N)=O)NC(=O)[C@H](CCC(=O)O)NC(=O)[C@H](CCC(=O)O)NC(=O)[C@H](CC(C)C)NC(=O)[C@H](Cc1ccc(O)cc1)NC(=O)[C@H](CO)NC(=O)[C@H](CO)NC(=O)[C@@H](NC(=O)[C@H](CC(=O)O)NC(=O)[C@H](CO)NC(=O)[C@@H](NC(=O)[C@H](Cc1ccccc1)NC(=O)[C@@H](NC(=O)CNC(=O)[C@H](CCC(=O)O)NC(=O)C(C)(C)NC(=O)[C@@H](N)Cc1c[nH]cn1)[C@@H](C)O)[C@@H](C)O)C(C)C)C(=O)N[C@@H](C)C(=O)N[C@@H](Cc1c[nH]c2ccccc12)C(=O)N[C@@H](CC(C)C)C(=O)N[C@H](C(=O)N[C@@H](CCCNC(=N)N)C(=O)NCC(=O)N[C@@H](CCCNC(=N)N)C(=O)NCC(=O)N[C@@H](CCCCNC(=O)[C@@H](N)CCCCNC(=O)[C@@H](N)CCCCNC(=O)CC[C@H](NC(=O)[C@H]1CC[C@H](CNC(=O)CCCCCCCCCCCCCCCCCCC(=O)O)CC1)C(=O)O)C(=O)NCC(=O)NCC(=O)N[C@@H](CO)C(=O)N[C@@H](CCCCNC(=O)[C@@H](N)CCCCNC(=O)[C@@H](N)CCCCNC(=O)CC[C@H](NC(=O)[C@H]1CC[C@H](CNC(=O)CCCCCCCCCCCCCCCCCCC(=O)O)CC1)C(=O)O)C(=O)O)C(C)C` [Example 7] (H-H[Aib]EGTFTSDVSSYLEEQAAREFIAWLVRGRGK([εLys-εLys-γGlu-Trx-C20 diacid])GGSK([εLys-εLys-γGlu-Trx-C20 diacid])-OH), the half-life in series [2] was 106 h.

Broadly, the IC50 is the concentration needed to halve the response being measured. The low end stands for higher potency, the high end for lower potency. By EC50 is commonly meant the midpoint of the concentration-response curve. A high value points to a need for much substance.
